Results published in patent US12622917B2, “High-activity Wnt pathway inhibitor compound” (ADLAI NORTYE BIOPHARMA CO., LTD., priority 2020, dated 2026).

Legend:
[1] = test system: HepG2; assay: Proliferation inhibition, HepG2 cell line; assay type: cell-based; conditions: Homo sapiens; HepG2 cells, 96 hours culture, cell viability detection; read-out: Antiproliferative IC50 HepG2
Description: (§1) The cell lines used in the test are NCI-H929 and HepG2 cell lines whose Wnt pathway is continuously activated and whose proliferation is Wnt pathway-dependent; the inhibitory effect of the compound of the present invention on Wnt-dependent proliferation is judged.
(§2) Treat the NCI-H929 and HepG2 cell lines cultured in their respective mediums in the logarithmic growth phase, collect the cells and prepare a uniform cell suspension of known concentration, and then add the cell suspension to the 96-well cell culture plate solution so that each well contains 4000 cells. Put it into a […] incubator and incubate at 37° C. for 20-24 h. On the second day, the fully dissolved, 3-fold serially diluted compound was added to each cell culture well, so that the final maximum concentration in the cell culture well was 20 uM, and the culture was continued for 96 hours. In this test, Promega's cell viability detection test is used for detection. The more the cells proliferate, the stronger the final signal intensity will be. The detection instrument is SpectraMax, full wavelength mode. The wells only added with DMSO were used as positive control wells, and the wells that were not inoculated with cells were used as negative control wells. […] The IC50 value of cell proliferation inhibition was used to evaluate the inhibitory effect of the compound on the Wnt pathway and the toxic effect on normal cells (Table 3).

[2] = test system: NCI-H929; assay: Proliferation inhibition, NCI-H929 cell line; assay type: cell-based, human; conditions: Homo sapiens; NCI-H929 cells, 96 hours culture, cell viability detection; read-out: Antiproliferative IC50 NCI-H929
Description: as §1, §2

[3] = test system: RKO; assay: Proliferation inhibition, non-Wnt mutant control cell line RKO; assay type: cell-based; conditions: Homo sapiens, Wnt-independent control cell line, 96 hours, read-out: Antiproliferative IC50 RKO
Description: (§3) The cell lines used in the experiment are Colo205 and DU4475 cell lines whose Wnt pathway is continuously activated and whose proliferation is Wnt pathway-dependent; while the BELA and RKO cell lines, whose Wnt pathway is not activated under normal circumstances and the proliferation is independent of Wnt pathway, as control cell lines. It is Judged that the inhibitory effect of the compound of the present invention on Wnt-dependent proliferation is not caused by other non-specific toxicity.
(§4) Treat the Colo205, Du4475, HELA and RKO cell lines cultured in their respective mediums in the logarithmic growth phase, collect the cells and prepare a uniform cell suspension of known concentration, and then add it to the 96-well cell culture plate Cell suspension, so that each well contains 1000 cells. Put it into a 5% CO2 incubator and incubate at 37° C. for 20-24 h. On the second day, the fully dissolved, 3-fold serially diluted compound was added to each cell culture well, so that the final maximum concentration in the cell culture well was 20 uM, and the culture was continued for 96 hours. In this test, Promega's cell viability detection test is used for detection. The more the cells proliferate, the stronger the final signal intensity will be. The detection instrument is SpectraMax, full wavelength mode. The wells only added with DMSO were used as positive control wells, and the wells that were not inoculated with cells were used as negative control wells. […] The IC50 value of cell proliferation inhibition was used to evaluate the inhibitory effect of the compound on the Wnt pathway and the toxic effect on normal cells (Table 2).

[4] = test system: Colo205-LUC-TCF/LEF M1 reporter cell line (Wnt pathway); assay: Colo205-LUC-TCF/LEF M1 reporter gene (luciferase) inhibition; assay type: cell-based; conditions: 4 hours incubation, luciferase readout
Description: Colo205 cell line (Cell Bank of Chinese Academy of Sciences, Cat #TCHu102) was purchased from the Cell Bank of Chinese Academy of Sciences. After expansion and subculture, in the exponential growth phase of the cells, transfection with lipo3000 liposome transfection with TCF/LEF transcription factors Driven luciferase reporter plasmid (Promega). […] The plasmid carries a resistance gene for resistance screening. Transfection was carried out in 10 cm culture dishes using conventional complete medium without resistance. After 2 days, the medium with resistance was replaced, and the culture was continued. After that, the resistant medium was replaced every 2 days, and the suspended cells were discarded. The original medium was centrifuged to remove cells and debris and retained as an adaptive medium. When the cells covered the culture dish, the cells were digested, counted, and passaged in a 96-well plate, so that the average number of cells contained in each well was 1.5/well, and the adaptive medium was used for passage. The rest of the cells were frozen. After subculture, culture for 4 hours to allow the cells to adhere to the wall, and then observe the number of cells in each well under a microscope. Wells with only 1 cell per well were labeled as monoclonal wells. Afterwards, normal culture was performed, and the culture medium was replaced every 2 days, and observed. There are holes where the monoclonal cells continue to grow in the early stage, and they are labeled twice, and can be replaced with normal resistant medium. When a monoclonal well was overgrown with a 96-well plate, it is digested and passaged to a 24-well culture plate. After the 24-well plate is overgrown, it is passaged to a 96-well plate and a 6-well plate. The cells in a 96-well plate are at least 6 wells, of which 3 wells were added with known Wnt inhibitors, and the other 3 wells were not treated. After 24 hours, the cells in the 96-well plate were added with a fluorescence detection reagent to detect the fluorescence intensity. Cell lines with fluorescent expression when not treated and decreased fluorescent light after inhibition were selected and further cultured. The Colo205-LUC-TCF/LEF-M1 cell line is one of the cell lines screened above. Its growth curve, cell shape, and cell growth state are similar to those of the original Colo205 cells, and the ratio of the fluorescent signals of the inhibitor-treated and untreated cells is the largest among all cell lines, and the ratio can reach 4-5 times when inhibited at 4 hours, which was completely suitable for the screening of Wnt inhibitors in the later stage.
The Colo205-LUC-TCF/LEF M1 cell line is a reporter tool cell stably transfected with the pGL4.49-LUC2-TCF/LEF vector. The β-catenin Wnt pathway is continuously activated. After adding the inhibitor, the Wnt pathway is inhibited. The expression of firefly luciferase regulated by the[…] cis-element decreased, and after adding the detection substrate, the detected light signal decreased accordingly, so as to detect the inhibitory effect of the compound.
To a 96-well cell culture plate, add 100 uL of the compound with a maximum concentration of 20 uM to each well, and make a 3-fold serial dilution of the compound concentration. Then 10,000 colo205 cells stably transfected with the reporter gene and 100 uL medium were inoculated into each well, and corresponding positive and negative control wells were made at the same time. Put the cells in a 5% CO2 incubator and incubate at 37° C. for 4 hours. After 4 hours, remove the culture medium, add 100 uL of reagent (Promega) containing the corresponding firefly luciferase substrate to each well, and measure the activity of luciferase reporter gene. Luminescence intensity was read with SpectraMax in full wavelength mode. […]

[5] = test system: Colo205; assay: Proliferation inhibition, Wnt mutant cell line Colo205; assay type: cell-based; conditions: Homo sapiens, COLO 205; Colo205, Wnt pathway-dependent, 96 hours; read-out: Antiproliferative IC50 Colo205
Description: as §3, §4

[6] = test system: DU4475; assay: Proliferation inhibition, Wnt mutant cell line DU4475; assay type: cell-based; conditions: Homo sapiens, DU-4475; DU4475, Wnt pathway-dependent, 96 hours; read-out: Antiproliferative IC50 DU4475
Description: as §3, §4

Row | IC50 [1] | IC50 [2] | IC50 [4] | IC50 [5] | SMILES | IC50 [3] | IC50 [6]
1 | < 0.5 nM | 19 nM | < 0.5 nM | < 0.5 nM | C[C@H]1C(=O)N2CCCc3nc(NCc4ccc(Oc5cc(C(F)(F)F)nn5C5CC5)nc4)nc(c32)N1C [130 (W354), (S)-2-(((6-((1-cyclopropyl-3-(trifluoromethyl)-1H-pyrazol-5-yl)oxo)pyridin-3-yl)methyl)amino)-4,5-dimethyl-4,5,9,10-tetrahydro-6H,8H-pyrido[3,2,1-de]pteridin-6-one] | > 10000 nM | –
2 | 10 nM | 50 nM | 4 nM | 5 nM | CCn1nc(C(F)(F)F)cc1Oc1ccc(CNc2nc3c4c(n2)N(C)[C@@H](COC)C(=O)N4CCC3)cn1 [202 (W361)] | > 10000 nM | –
3 | 8.2 nM | 95 nM | 21 nM | 9.3 nM | CN1c2nc(NCc3ccc(Oc4cc(C(F)(F)F)nn4C4CC4)nc3)nc3c2N(CCC3)C(=O)[C@]1(C)CO [203 (W372)] | > 10000 nM | –
4 | 5.6 nM | 67 nM | 37 nM | 14.8 nM | CN1c2nc(NCc3ccc(Oc4cc(C(F)(F)F)nn4C4CC4)nc3)nc3c2N(CCC3)C(=O)[C@@H]1CO [205 (W379)] | > 10000 nM | –
5 | < 0.5 nM | – | < 0.5 nM | 1.6 nM | COc1nc(C(F)(F)F)ccc1Oc1ccc(CNc2nc3c4c(n2)N(C)[C@@H](C)C(=O)N4CCC3)cn1 [231 (W417)] | > 10000 nM | –
6 | 4.4 nM | 36 nM | 4 nM | 2.7 nM | CCn1nc(C(F)(F)F)cc1Oc1ccc(CNc2nc3c4c(n2)N(C)[C@@H](C)C(=O)N4CCC3)cn1 [152 (W336)] | > 10000 nM | –
7 | 49 nM | 90 nM | 24 nM | 10 nM | C[C@@H](O)[C@H]1C(=O)N2CCCc3nc(NCc4ccc(Oc5cc(C(F)(F)F)nn5C5CC5)nc4)nc(c32)N1C [206 (W388)] | > 10000 nM | –

Second part, the molecule before the results:

Row | SMILES | IC50 [1] | IC50 [2] | IC50 [4] | IC50 [5] | IC50 [3] | IC50 [6]
8 | CC(C)N1c2nc(NCc3ccc(Oc4cnc(C(F)(F)F)nc4)nc3)nc3c2N(CCC3)C(=O)[C@@H]1C [170 (W368)] | 31 nM | 94 nM | 17 nM | 7 nM | > 10000 nM | –
9 | COC[C@@]1(C)C(=O)N2CCCc3nc(NCc4ccc(Oc5ccc(C(F)(F)F)nc5)nc4)nc(c32)N1C [179 (W375)] | 11 nM | 45 nM | 23 nM | – | > 10000 nM | –
10 | COCC[C@H]1C(=O)N2CCCc3nc(NCc4ccc(Oc5ccc(C(F)(F)F)nc5)nc4)nc(c32)N1C [214 (W392)] | 9.6 nM | 82 nM | – | 34 nM | > 10000 nM | –
11 | Cc1cc(CNc2nc3c4c(n2)N(C)[C@@H](C)C(=O)N4CCC3)cnc1Oc1ccc(C(F)(F)F)nc1 [103 (W195)] | 68 nM | – | 36 nM | 19 nM | > 10000 nM | 11 nM
12 | COc1nc(C(F)(F)F)ccc1Oc1ccc(CNc2nc3c4c(n2)N(C)[C@@](C)(CO)C(=O)N4CCC3)cn1 [232 (W418)] | < 0.5 nM | – | 5.5 nM | 4 nM | > 10000 nM | –
13 | COC[C@@]1(C)C(=O)N2CCCc3nc(NCc4ccc(Oc5cnc(C(F)(F)F)nc5)nc4)nc(c32)N1C [180 (W386)] | 40 nM | 82 nM | 23 nM | 14.6 nM | > 10000 nM | –
14 | [2H]C([2H])([2H])N1c2nc(NCc3ccc(Oc4cc(C(F)(F)F)nn4CC)nc3)nc3c2N(CCC3)C(=O)[C@@H]1COC [201 (W360)] | 14 nM | 51 nM | 6 nM | 3.6 nM | > 10000 nM | –
15 | [2H]C([2H])([2H])N1c2nc(NCc3ccc(Oc4cnc(C(F)(F)F)nc4)nc3)nc3c2N(CCC3)C(=O)C1CC(F)(F)F (stereo not drawn) [192 (W324)] | 4 nM | 12 nM | 23 nM | 3.2 nM | > 10000 nM | –
16 | CN1c2nc(NCc3ccc(Oc4cnc(C(F)(F)F)nc4)nc3)nc3c2N(CCC3)C(=O)C1CC(F)(F)F (stereo not drawn) [198 (W307)] | 2.3 nM | – | 17 nM | 8.8 nM | > 10000 nM | –
17 | CN1c2nc(NCc3ccc(Oc4cnc(C(F)(F)F)nc4)nc3)nc3c2N(CCC3)C(=O)[C@@H]1C(C)(C)C [160 (W362)] | 3.5 nM | 48 nM | 3 nM | < 0.5 nM | 7150 nM | –
18 | [2H]C([2H])([2H])N1c2nc(NCc3ccc(Oc4ccc(C(F)(F)F)nc4)nc3)nc3c2N(CCC3)C(=O)C1CC(F)(F)F (stereo not drawn) [195 (W323)] | 4 nM | 19 nM | 22 nM | 2.1 nM | > 10000 nM | –
19 | CN1c2nc(NCc3ccc(Oc4ccc(C(F)(F)F)nc4)nc3)nc3c2N(CCC3)C(=O)C1CC(F)(F)F (stereo not drawn) [189 (W306)] | 3.5 nM | – | 17 nM | 8.5 nM | > 10000 nM | –
20 | CCn1nc(C(F)(F)F)cc1Oc1ccc(CNc2nc3c4c(n2)N(C)[C@@](C)(CO)C(=O)N4CCC3)cn1 [204 (W374)] | 12 nM | 60 nM | 25 nM | 9.6 nM | > 10000 nM | –
21 | [2H]C([2H])([2H])OC[C@@]1(C)C(=O)N2CCCc3nc(NCc4ccc(Oc5cnc(C(F)(F)F)nc5)nc4)nc(c32)N1C([2H])([2H])[2H] [181 (W396)] | 81 nM | 25 nM | 18 nM | 11.9 nM | > 10000 nM | –
